# Experimental data as given in BindingDB's records for doi:10.1016/j.ejmech.2018.09.061 (Anhui University of Chinese Medicine, 2018).
# Test: Inhibition of MDR1 in human KB/VCR cells assessed as potentiation of vincristine-induced cytotoxicity by measuring vincristine IC50 at 25 uM after 72 hrs by Western blot analysis (Rvb = 4.21 +/- 0.33 uM)
structure (smiles),measurement,value
CC(C)C(=O)OC(C)(C)[C@@H]1Cc2c(ccc3ccc(=O)oc23)O1,IC50,0.56 µM
